Source: patent publication US8293716B2, “Method of treating cancer by modulation of mortalin” (Ramot At Tel Aviv University Ltd., priority 2005, dated 2012)
Where a SMILES comes first, the peptide text is derived from it. The star is where a group is joined. Cbz = O=C(OCc1ccccc1)*; CH2F = FC*

Experiments:
mortalin [1] = assay: Mortalin release into supernatants of K562 cells, SDS-PAGE and Western blotting; format: cell-based, human; conditions: for mortalin release in response to sublytic dose of pore-former: mellitin 70 micromolar, SLO 900 units per milliliter, 10 minutes 37 degrees, no complement, FIGS. 4c-d; for release of mortalin from complement-treated cells: 30 minutes pretreatment (PMB 100 micrograms per milliliter, PD98059 10 micromolar), then sublytic anti-K562 antibody and NHS, FIGS. 6a-d
Method: (§1) Collection of extracellular protein: Cells were treated with antibodies for 30 minutes at 4 degrees centigrade and then with NHS or HI-NHS (50 percent) for 10 minutes at 37 degrees centigrade. Then, the cells were extensively washed into HBSS and incubated at 37 degrees centigrade. At different times, cells were removed by centrifugation at 250×g and supernatants were collected and kept frozen until analyzed. In some experiments, cells were first metabolically labeled for 2 hours at 37 degrees centigrade with an L-[^35S]methionine, L-[^35S]cysteine mix (Amersham Pharmacia, Uppsala, Sweden) at 200 microcuries per milliliter in RPMI (lacking methionine and cysteine) and 20 millimolar HEPES-pH 7.0. Cytotoxicity assays and collection of extracellular proteins were performed as described above. Radioactivity in the supernatants was quantified in a beta-Scintillation Counter (Tri-Carb, Packard).
Protein analyses: Protein concentration was analyzed with the BCA Protein Assay Kit (Pierce, Rockford, Ill., USA). Samples of 20 micrograms of protein was subjected to SDS-PAGE under reducing conditions (50 millimolar DTT), in a 10 percent acrylamide gel, and stained with Coomassie Blue or silver. Selected protein species were excised from Coomassie Blue-stained gels and analyzed by mass spectrometry (MALDI-MS) at the Maiman Institute for Proteome Research (Tel-Aviv University). Alternatively, the electrophoretically separated proteins were transferred onto a nitrocellulose membrane (Schleicher & Schuell, Dassel, Germany). The membrane was blocked with 5 percent skim milk (Tnuva, Rehovot, Israel) in Tris-buffered saline containing 0.05 percent Tween-20 (Sigma; TBST) for 1 hour at room temperature. The membrane was treated with rabbit anti-mortalin antibodies and then with peroxidase-conjugated goat anti-rabbit IgG. The labeled membrane was developed with an enhanced chemiluminescence reagent (Pierce, Rockford, Ill., USA) and exposed to a SuperRX film (Fuji, Tokyo, Japan).

K562 cells [2] = assay: Complement-induced protection assay; format: cell-based, human; conditions: cells pre-treated with inhibitor and sublytic complement, then lytic dose of antibody and complement; FIGS. 6f-g
Method: (§2) Cell lysis and induced protection assays: Cytotoxicity assays were performed as previously described (Reiter, Y. and Fishelson, Z. 1992. Mol Immunol 29:771). Briefly, cells were incubated with diluted anti-K562 antiserum for 30 minutes at 4 degrees centigrade and then with complement (NHS, C7- or C8-deficient serum or HI-NHS, 50 percent) for 60 minutes at 37 degrees centigrade. Cell lysis was determined via Trypan blue staining. For the complement-induced protection assays, the cells were first treated with sublytic doses of antibody and NHS, washed and then incubated with lytic doses of antibody and NHS (Reiter, Y. et al., 1992. Eur J Immunol 22:1207). Statistical significance was analyzed by using the two-sided unpaired student's t-test.

K562 cells [3] = assay: Release of metabolically-labeled proteins from complement-treated K562 cells; format: cell-based, human; conditions: pretreatment 30 minutes with 100 micrograms per milliliter PMB or 10 micromolar PD; radioactivity in supernatants; FIG. 6e
Method: as §1

K562 cells [4] = assay: Complement-mediated cell lysis (cytotoxicity) assay, Trypan blue staining; format: cell-based, human; conditions: 10 micromolar cathepsin L inhibitor 30 minutes, anti-K562 1:40 or 1:50, NHS 60 minutes; versus DMSO; FIG. 8b
Method: (§3) Cells and cell lysates: The human erythroleukemic cell line K562 was cultured in RPMI-1640 medium supplemented with 10 percent (v/v) heat-inactivated fetal bovine serum (Gibco laboratories, Grand Island, NY, USA), 1 percent glutamine, 2 percent pyruvate and antibiotics mixture (Bio-Lab, Jerusalem, Israel), at 37 degrees centigrade in a 5 percent carbon dioxide atmosphere. To prepare cell lysates, 20 million cells were mixed with 1 milliliter lysis buffer composed of 100 millimolar Tris-pH 7.5, 10 millimolar EDTA, protease inhibitor cocktail (Sigma) and 0.7 percent Triton X-100. After 3 cycles of freezing and thawing, the cell lysate was subjected to centrifugation for 15 minutes at 14,000×g, and the supernatant was collected and diluted with 1 milliliter HBSS (Sigma, Rehovot, Israel).
as §2, with “For the complement-induced protection assays, the cells were first treated with sublytic doses of antibody and NHS, washed and then incubated with lytic doses of antibody and NHS (Reiter, Y. et al., 1992. Eur J Immunol 22:1207).” left out

mortalin [5] = assay: Mortalin expression level in K562 cells, Western blotting of cell lysates; format: cell-based, human; conditions: cathepsin L inhibitor 5, 10, 20 or 40 micromolar, 30 minutes 37 degrees; FIG. 8a
Method: as §3
Protein analyses: Protein concentration was analyzed with the BCA Protein Assay Kit (Pierce, Rockford, Ill., USA). Samples of 20 micrograms of protein was subjected to SDS-PAGE under reducing conditions (50 millimolar DTT), in a 10 percent acrylamide gel, and stained with Coomassie Blue or silver. Selected protein species were excised from Coomassie Blue-stained gels and analyzed by mass spectrometry (MALDI-MS) at the Maiman Institute for Proteome Research (Tel-Aviv University). […]

solid tumors = conditions: cited from earlier work

Compound | mortalin release in response to sublytic dose of pore-former (mortalin [1]) | acquired resistance to lytic complement after sublytic complement (K562 cells [2]) | release of mortalin from complement-treated cells (mortalin [1]) | complement-induced release of metabolically-labeled proteins (K562 cells [3]) | other results
mellitin | not released |  |  |  | 
polymyxin B [PMB] |  | did not acquire the resistance to lytic complement | significantly reduced | blocked | 
COc1cccc(-c2cc(=O)c3ccccc3o2)c1N [PD98059] |  | did not acquire the resistance to lytic complement | significantly reduced | blocked | 
Streptolysin O [SLO] | not released |  |  |  | 
O=C(N[C@@H](Cc1ccccc1)C(=O)N[C@@H](Cc1ccccc1)C(=O)CF)OCc1ccccc1 [cathepsin L inhibitor, Z-Phe-Phe-CH2F] (Cbz-Phe-Phe-CH2F) |  |  |  |  | resistance of treated cells to lysis by antibody and complement (K562 cells [4]): enhanced resistance; mortalin expression in K562 cells (mortalin [5]): elevation of mortalin expression
CCn1c(=O)/c(=C2\Sc3ccccc3N2C)s/c1=C\c1cccc[n+]1CC.[Cl-] [MKT-077] |  |  |  |  | kidney toxicity in human patients (solid tumors; Propper et al. 1999): irreversible kidney damage; effectiveness when used to treat cancer patients (solid tumors; cancer patients): ineffective or suboptimally effective
